In patent US7488749B2, “Therapy of diseases of the eye, the inner ear and the central nervous system” (Cevec Pharmaceuticals GmbH, priority 2002, dated 2009):
Where two headings read alike, the source gives them in different places.

What was measured:
[1] = system: Human RPE cells; assay: Formation of lipofuscin (auto-fluorescence) in RPE cells with tyrosinase inhibited by PTU; assay type: cell-based
Description: Human retinal pigment epithelium cells were isolated 2 hours post mortem from eyes of organ donors by incubation in 0.2% trypsin solution with 0.5 mM EDTA (if not indicated differently the reagents are from Sigma, Deisenhofen, Germany) for 30 minutes. The cells were centrifuged and cultivated in 24-well-plates (Nunc, Mainz, Germany) in Dulbeccos modified Eagle Medium with 15% foetal calf serum, 50 μg/ml gentamycin and 2.5 μg/ml amphotericin. The cells remain in primary culture (P0) for 3 weeks until confluence. Subsequent passaging was performed by trypsination of the cells in the respective time intervals. For the feeding with membranes of visual cells, cells originating from 3 different donors (passage 3, 6 and 16) were used. […]
The cells in group 1+2 were overlaid with about 2×10^6 outer segments of rods. […] After this, the cells were looked at under the fluorescence microscope (Axiovert, Zeiss, Oberkochem, Germany) with filters specific for the auto-fluorescence of the lipofuscein (excitation 360 nm, emission 540 nm, Feuerbacher Analysentechnik, Tübingen, Germany) and were photographed with a digital camera and saved using Openlab Software (Improvision, UK).

[2] = for zinc concentration of the chorioidea-RPE-complex: 24 hours after 40 mg/kg ZnCl2 intraperitoneally
Description: Two albino (Wistar) rats and two pigmented (Long Evans) rats were injected intraperitoneally with 40 mg/kg body weight ZnCl2. After 24 hours the chorioidea-RPE-complex was isolated from retina and sclera. Respective samples from untreated animals served as controls. The samples were weight directly into leak-proof PFA vessels (Savillex) (Microbalance Sartorius MC21S) and cracked by using ultrasound homogenisation for 24 hours at 30° C. with HNO3—H2O2 (suprapur grade reagents; Merck). After careful evaporation, the remains were solved in 2% HNO3 for 5 hours at 50° C. This solution was subsequently transferred to a 10 ml volumetric flask. The final clear solution contained 10 ng rhodamin (Rh)/ml and was refilled with 2% HNO3. The detection of zinc was performed by inductively coupled plasma mass spectrometry (ICP-MS, ELAN 6000 Perkin-Elmer/Sciex) and by using Rh as internal standard and a calibration with chemical reagents having the highest purity grade.

[3] = system: mRNA for catalase; assay: Catalase mRNA expression in the chorioidea-RPE-complex after zinc injection (real time RT-PCR); assay type: in vivo, rat
Description: After 6 and 24 hours the chorioidea-RPE-complex was isolated from the retina and sclera. The amount of catalase mRNA expression in the chorioidea-RPE-complex was quantified by real time RT-PCR with the SYBR Green I reaction system using an iCycler (Bio-Rad Laboratories, Hercules, Calif.). PCR primer (catalase: upper primer: TAGCCAGAAGAGAAACCCACAAACT (SEQ ID NO:1) and lower primer: TCCCTCGGTCGCTGAACAAGA (SEQ ID NO:2); GAPDH: upper primer: AACTTTGTGAAGCTCATTTCCTGGTAT (SEQ ID NO:3) and lower primer: CCT TGC TGG GCT GGG TGG T (SEQ ID NO:4)) were selected using the primer analysis software OLIGO®4.1 (National Biosciences, Plymoth, Minn., USA) that the primer specific melting temperature was between 58 and 60° C. […] The quantification data were calculated using the iCycler iQ System Software (Bio-Rad Laboratories, Hercules, Calif.). After subtraction of the PCR base line by the software, the linear logarithmic portion of the fluorescence was plotted versus the number of cycles to determine the cycle number (threshold cycle, CT) at which the threshold fluorescence for catalase and GAPDH as a reference was exceeded. Since the amplification effectivity of target and reference gene was approximately the same (delta CT<0.15) the comparative CT method was used for the quantification of the catalase in comparison GAPDH.

[4] = system: human amelanotic retinal pigment epithelium cells ARPE-19; assay: Survival of retinal pigment epithelium cells after lethal UVA radiation; assay type: cell-based; conditions: without melanin
Description: 30.000 human amelanotic retinal pigment epithelium cells ARPE-19 (American Type culture Collections, Manassas, Va., USA) were cultivated in a mixture of DMEM and F12 Medium (PAA Laboratories, Linz, Austria) with 10% foetal calf serum, gentamycin and amphotericin and were incubated with 1 mg/ml melanin from squids (Sepia officinalis, Sigma). After 4 hours, the non-phagocytosed melanin was thoroughly washed away. After 24 hours the artificially pigmented cells were incubated with 100 or 200 μmol ZnCl2 for 2 hours. Three days later, the cells were irradiated using a HRL, 125 W, lamp (Radium, Germany) for 1 hour. The UVA light portion was 18 mW/cm^2 at the surface of the cell culture liquid and was measured using a RM-12 UV radiometer (Dr. Gröbel, UV Elektronik, Ettlingen, Germany). Cells without melanin and zinc treatment with and without irradiation served as controls. After 2 further days, the number of surviving cells was counted in a Thoma-chamber.
In the following table the mean values of surviving cells from 3 independent experiments are indicated. The number of surviving cells after irradiation without melanin and/or zinc treatment was statistically compared with the number of surviving cells with treatment. That is were the p-value results from. […] The number of surviving cells war increased by the factor 7.4 in comparison to untreated cells.

Row | SMILES | auto-fluorescence specific for lipofuscin ([1]; group 1: 1 mM PTU, fed with membranes of visual cells on 15 successive days) | auto-fluorescence specific for lipofuscin ([1]; group 3: 1 mM PTU, not fed) | final zinc concentration in pigmented rats relative to treated albinos (times higher) ([2]; after injection of zinc, 24 hours) | zinc concentration of the chorioidea-RPE-complex ([2]; albino (Wistar) rats) [µg/g] | zinc concentration of the chorioidea-RPE-complex ([2]; pigmented (Long Evans) rats) [µg/g] | increase of zinc concentration (factor) versus untreated ([2]; pigmented rats, 24 hours after injection of zinc) | amount of mRNA for catalase ([3]; 24 hours after 40 mg/kg ZnCl2 i.p.) | increase of mRNA for catalase (factor) ([3]; six hours after 40 mg/kg ZnCl2 i.p., albino and pigmented rats compared) | number of surviving cells ([4]; with irradiation (UVA 18 mW/cm^2, 1 hour), 100 μmol Zn) | number of surviving cells ([4]; with irradiation, 200 μmol Zn)
1 | NC(=S)Nc1ccccc1 [PTU, phenylthiourea] | intensive, golden auto-fluorescence specific for lipofuscin | no auto-fluorescence |  |  |  |  |  |  |  | 
2 | [Cl-].[Cl-].[Zn+2] [zinc, ZnCl2] |  |  | 19 | 6.5 | 125 | 1.6 | again as high as without zinc injection | 12 | 33333 ± 11547 | 41666 ± 16072
